In patent US11969425B2, “Inhibitor of indoleamine-2,3-dioxygenase (IDO)” (InventisBio LLC, priority 2016, dated 2024):
pEC50, pIC50: −log10 of the molar value. Where two headings read alike, the source gives them in different places.

What was measured:
[1] = Human hepatocyte clearance study; assay type: in vitro ADME; conditions: pooled cryopreserved human hepatocytes (suspension)
Experimental: (§1) The in vitro human hepatocyte clearance of compounds described here was studied using pooled human hepatocytes purchased from BioreclamationIVT (Westbury, NY, Cat #X008001, Lot #TQJ). The assay was conducted according to manufacture's instruction. Briefly, 10 mM stock solutions of test compounds and positive control (Verapamil) were prepared in 100% DMSO. Thawing media (50 mL) used in the study consists of: 31 mLWilliams E medium (GIBCO Cat #12551-032); 15 mL isotonic percoll (GE Healthcare Cat #17-0891-09); 500 uL 100XGlutaMax (GIBCO Cat #35050); 750 uL HEPES (GIBCO Cat #15630-080); 2.5 mL FBS (Corning Cat #35-076*CVR); 50 uL human insulin (GIBCO Cat #12585-014) and 5 uL dexamethasone (NICPBP). Incubation media is made of Williams E medium supplemented with 1xGlutaMax. Both thawing medium and incubation medium (serum-free) were placed in a 37° C. water bath for at least 15 minutes prior to use. Compound stock solutions were diluted to 100 μM by combining 198 μL of 50% acetonitrile/50% water and 2 μL of 10 mM stock solution. Verapamil was use as positive control in the assay. Vials of cryopreserved hepatocytes were removed from storage and thawed in a 37° C. water bath with gentle shaking. Contents of the vial were poured into the 50 mL thawing medium conical tube. Vials were centrifuged at 100 g for 10 minutes at room temperature. Thawing medium was aspirated and hepatocytes were re-suspended with serum-free incubation medium to yield ˜1.5×10^6 cells/mL. Hepatocyte viability and density were counted using a Trypan Blue exclusion, and then cells were diluted with serum-free incubation medium to a working cell density of 0.5×10^6 viable cells/mL. Then, a portion of the hepatocytes at 0.5×10^6 viable cells/mL was boiled for 5 minutes prior to adding to the plate as negative control to eliminate the enzymatic activity so that little or no substrate turnover should be observed. The boiled hepatocytes were used to prepare negative samples. Aliquots of 198 μL hepatocytes were dispensed into each well of a 96-well non-coated plate. The plate was placed in the incubator on an orbital shaker at 500 rpm for approximately 10 minutes. Aliquots of 2 μL of the 100 μM test compound or positive control were added into respective wells of the non-coated 96-well plate to start the reaction. This assay was performed in duplicate. The plate was incubated in the incubator on an orbital shaker at 500 rpm for the designated time points. Twenty-five microliter of contents were transferred and mixed with 6 volumes (150 μL) of cold acetonitrile with IS (200 nM imipramine, 200 nM labetalol and 200 nM diclofenac) to terminate the reaction at time points of 0, 15, 30, 60, 90 and 120 minutes. Samples were centrifuged at 3,220 g for 25 minutes and aliquots of 150 μL of the supernatants were used for LC-MS/MS analysis. For data analysis, all calculations were carried out using Microsoft Excel. Peak areas were determined from extracted ion chromatograms. The in vitro half-life (t1/2) of parent compound was determined by regression analysis of the percent parent disappearance vs. time curve. The in vitro half-life (in vitro t1/2) was determined from the slope value: in vitro t1/2=0.693/k. […] Scaling factors for in vivo intrinsic clearance prediction using human hepatocytes are listed as: liver weight (g liver/kg body weight): 25.7; hepatocyte concentration (10^6 cells/g liver): 99; scaling factor: 2544.3.

pooled human hepatocytes = experiment: Human hepatocyte clearance study; assay type: in vitro ADME
Experimental: as §1

[2] = tested on: kynurenine production in SKOV-3 cells; experiment: Inhibition of kynurenine production in SKOV-3 cells; assay type: cell-based, human
Experimental: The effect of compounds described herein on the inhibition of kynurenine production in HeLa cells (derived from human cervical cancer) was determined. HeLa cells were seeded into a 96-well culture plate at a density of 5×10^3 per well in RPMI1640/phenol red free media (from GIBCO) with 2 mM L-glutamine and 10% fetal bovine serum (FBS, from GIBCO) and grown overnight in a 37° C. incubator with 5% CO2. Twenty-four hours later, human IFN-γ (from GIBCO) (final concentration 50 ng/mL) and test compound solutions (serially diluted to different wells) were added to each well with a final volume of 200 uL per well. Forty-eight hours after incubation with compounds, 140 uL supernatant was taken from each well and was transferred to a new 96-well plate. Ten microliters of 6.1 N trichloroacetic acid were added into each well, mixed and incubated at 50° C. for 30 minutes. […] The yellow color derived from kynurenine was measured at 480 nm using a SPECTRAmax i3 reader. Each compound concentration was done in triplicates and compound IC50 value was calculated using nonlinear regression using Graphpad Prism 5.0.
The effect of compounds described herein on the inhibition of kynurenine production in SKOV-3 cells (derived from human ovarian cancer) was determined using a similar experimental procedure as described in Example A. Exemplary results are shown in FIG. 1. […]

[3] = tested on: LPS-induced plasma kynurenine; experiment: Inhibition of LPS induced plasma kynurenine in mice; assay type: in vivo; conditions: Balb/c mouse, 5 mg/kg LPS i.p. plus oral 30 mpk
Experimental: The effect of compounds described herein on the inhibition of lipopolysaccharide (LPS)-induced plasma kynurenine in mouse was determined. Female Balb/c mouse (˜20 g, obtained from Vital River Laboratory Animal Co. LTD) was treated with either vehicle control (saline) or 5 mg/kg LPS via intraperitoneal injection, followed by an oral dose of 30 mpk compound 9 within 5 minutes of LPS injection. Blood samples (500 uL) were collected into K2EDTA tube via retro-orbital puncture at 12 and 24 hrs (terminal bleeding) after treatment with LPS or LPS plus compound 9. For vehicle control group, plasma samples were collected at 24 hour post dose. Blood samples were put on ice after collection and centrifuged at 4° C. (2000 g, 5 minutes) immediately after collection to obtain the plasma. Plasma kynurenine level was determined by LC-MS/MS analysis. Each group contains 3 mice and mean plasma kynurenine level was plotted in FIG. 2.

[4] = tested on: kynurenine production in HeLa cells; experiment: Inhibition of kynurenine production in HeLa cells; assay type: cell-based, human; conditions: 48 h, HeLa cells, human IFN-γ 50 ng/mL, kynurenine read at 480 nm, read-out: IC50
[5] = tested on: T cells and HeLa cells co-culture; experiment: T cells and HeLa cells co-culture assay (IFN-gamma production); assay type: cell-based, human; conditions: CD3 T cells + HeLa cells, 72 hr, FIG. 4; read-out: EC50, production of IFN-gamma in the T cells and HeLa cells co-culture media
Experimental: HeLa cells were seeded into 96-well plate (5000 cells per well in 100 μL of cell growth media DMEM with 10% FBS and 1% pen/strep) and incubated at 37° C. with 5% CO2. After overnight incubation, 200 μL of INF-gamma (50 ng/ml in growth media) was added to the plate and returned to incubator for another 48 hr. SepMater™-50 centrifuge tube was used to isolate PBMC from human donor according to manufacture's instruction (Stemcell). The CD3 T cell was then isolated from the PBMC using EasySep Human T cell isolation kit (Stemcell). Wash the 96-well plat twice with 200 μL of co-culture media (RPMI-1640+10% FBS+1% Pen/strep). Adjust the CD3 T cells density to 5×10^5 cells/ml with high dose anti-CD3/CD28 beads and co-culture medium (RPMI-1640+10% FBS+1% Pen/strep) and seed 200 μL/well into 96-well plate. Compound at different concentration was added to each well and the plate was incubated for a further 72 hr. Level of INF-gamma in the co-culture media (100 μL) was analyzed using the Human IFN-gamma ELISA Ready-SET-GO kit from eBioscience.

## CC(C)CN(CC(C)C)c1ccc(C2(C(=O)O)CCCC2)cc1NC(=O)Nc1ccc(F)cc1F [Compound 9, 1-[4-[bis(2-methylpropyl)amino]-3-[[(2,4-difluorophenyl)carbamoyl]amino]phenyl]cyclopentane-1-carboxylic acid]
[1]; human, scaled up from in vitro t1/2, scaling factor 2544.3, read-out: Human Scale-up Clint
  CLint scaled at 1 µM: 10 mL/min/kg
[1]; pooled human hepatocytes, read-out: Human In vitro Clint (μL/min/10^6 cells)
  hepatocyte CLint at 1 µM: 3 µL/min/1e6 cells
[1]; pooled human hepatocytes, read-out: Human In vitro T1/2
  half-life at 1 µM: 7.05 h
Pooled human hepatocytes; pooled human hepatocytes
  Human Hepatocyte Remaining Percentage @ 120 min: 79
[2]; Homo sapiens, SK-OV-3, FIG. 1
  pIC50: 8.13
[3]; 12 hour time point
  drop of plasma kynurenine compared to the LPS treatment alone: 72%
[3]; 24 hour time point
  drop of plasma kynurenine compared to the LPS treatment alone: 85%
[4]; Homo sapiens, HeLa
  pIC50: 8.66

## NS(=O)(=O)NCCNc1nonc1/C(=N/O)Nc1ccc(F)c(Br)c1 [INCB-24360, reference compound]
Pooled human hepatocytes; pooled human hepatocytes
  Human In vitro Clint (μL/min/10^6 cells): 19 μL/min/10^6 cells
  Human In vitro T1/2: 1.22 h
  Human Hepatocyte Remaining Percentage @ 120 min: 35
Pooled human hepatocytes; scaled up from in vitro t1/2, scaling factor 2544.3
  Human Scale-up Clint: 48 mL/min/kg
[2]; FIG. 1
  pIC50: 7.99
[4]
  pIC50: 8.16
[5]
  pEC50: 7.39
